Laboratory results: US4876247A, “Methlenediphosphonic acid derivatives, and antirheumatic pharmaceutical composition in which they are present and methods of using same” (Sanofi, priority 1984, dated 1989)

Tested on: adjuvant arthritis
Test: "In vivo" study: adjuvant arthritis (Mycobacterium tuberculosis) in rats, weight of the right rear paw
Design: species or system male Sprague-Dawley rats
Settings: oral, 0.16 mmol/kg/day, 6 days/week for 3 weeks, versus untreated arthritic control rats
Experimental: "IN VIVO" STUDY: ADJUVANT ARTHRITIS
The injection of rats with mycobacterium causes a polyarthritis and in certain respects resembles human rheumatoid arthritis.
A suspension of Mycobacterium tuberculosis (0.4 mg) in paraffin oil (0.05 ml) is injected intradermally into the tail of male Sprague-Dawley rats having a mean weight of 150 g.
These rats are divided into 2 groups of 14 animals.
The animals of the 1st group are treated 6 days/week for 3 weeks;
either subcutaneously with doses ranging from 0.32 μmol to 32 μmol/kg/day,
or orally with a dose of 0.16 mmol/kg/day. The second group receives placebo and serves as the control group.
After 3 weeks of treatment, half the animals in each group are sacrificed; the other half are kept for 2 weeks without treatment and then sacrificed in turn.
After the animals have been sacrificed, the right rear paw is removed at the tribiotarsal joint and then weighed. The mean and the standard error of the weights are determined for each half-group.
The activity of the product is expresed as the percentage variation in the mean weight of the paws of the treated arthritic rats relative to that of the arthritic paws of the untreated rats (control rats).
For each of the products tested, the therapeutic activity is expressed as the percentage inhibition of the weight of the paw after 3 weeks of treatment. […]

Cc1ccc(SCC(N)(P(=O)(O)O)P(=O)(O)O)cc1 [42 710 A]
% Inhibition of the weight of the paw 2 weeks after the end of the treatment (then 2 weeks without treatment): 7%
% Inhibition of the weight of the paw at the end of the treatment (3 weeks): 19%
